Values joined by “and” are separate entries in the source; they are usually repeats but may differ in a detail not shown here. Identical values can stand only once. Like-named read-outs stand apart in the source and are kept apart here.
How the values were obtained:
[1] = test system: mice; settings: mouse, in vivo
[2] = test system: C57B1/6 mice; settings: mouse, in vivo
[3] = test system: C57B1/6 mice; settings: mouse, in vivo; remark: listed apart in the source
[4] = test system: Y-1 adrenal cells; assay type: cell-based
[5] = test system: C57B1/6 mice; settings: mouse, in vivo; remark: listed apart in the source
[6] = cited from earlier work
[7] = test system: C57B1/6 mice; settings: mouse, in vivo; remark: listed apart in the source
[8] = test system: C57B1/6 mice; settings: mouse, in vivo; remark: listed apart in the source
[9] = test system: C57B1/6 mice; settings: mouse, in vivo; remark: listed apart in the source
[10] = test system: mice; settings: mouse, in vivo; remark: listed apart in the source
[11] = test system: C57B1/6 mice; settings: mouse, in vivo; remark: listed apart in the source
[12] = test system: Balb/c mice; settings: mouse, in vivo, po
[13] = test system: mice; settings: mouse, in vivo; remark: listed apart in the source
[14] = test system: C57B1/6 mice; settings: mouse, in vivo; remark: listed apart in the source
[15] = test system: LT or CT; settings: cited from earlier work
[16] = test system: mice; settings: mouse, in vivo; remark: listed apart in the source

Escherichia coli heat-labile enterotoxin [LT]
examination of the injection sites [1]: developed edema and inflammation at the site of injection | anti-OVA antibody titers GMT [2]: 32,000 | histological examination of injection site [3]: elicited an inflammatory response that persisted for days | mice with inflammatory response [3]: 4 of 7 | persistence of induration [3]: greater than 2 weeks | skin nodules (incidence, words) [3]: did not cause skin nodules in six out of the seven injected mice | skin nodules / inflammatory response after intradermal injection [3]: caused skin nodules in all mice | toxin-induced inflammation [3]: completely abolished | rounding of cultured cells [4]: 70-100% | percentage of rounded cells ([4]; 0.05 ng/ml, 6-8 h): −−− (key: +++ 70-100% rounded cells; ++ 50-75%; + 25-50%; −−− <25%) | percentage of rounded cells ([4]; 0.1 ng/ml, 6-8 h): −−− (key: +++ 70-100% rounded cells; ++ 50-75%; + 25-50%; −−− <25%) | percentage of rounded cells ([4]; 0.2 ng/ml, 6-8 h): + (key: +++ 70-100% rounded cells; ++ 50-75%; + 25-50%; −−− <25%) | percentage of rounded cells ([4]; 0.4 ng/ml, 6-8 h): ++ (key: +++ 70-100% rounded cells; ++ 50-75%; + 25-50%; −−− <25%) | percentage of rounded cells ([4]; 0.8 ng/ml, 6-8 h): +++ (key: +++ 70-100% rounded cells; ++ 50-75%; + 25-50%; −−− <25%) | percentage of rounded cells ([4]; 1.6 ng/ml, 6-8 h): +++ (key: +++ 70-100% rounded cells; ++ 50-75%; + 25-50%; −−− <25%) | percentage of rounded cells ([4]; 3.1 ng/ml, 6-8 h): +++ (key: +++ 70-100% rounded cells; ++ 50-75%; + 25-50%; −−− <25%) | percentage of rounded cells ([4]; 6.3 ng/ml, 6-8 h): +++ (key: +++ 70-100% rounded cells; ++ 50-75%; + 25-50%; −−− <25%) | percentage of rounded cells ([4]; 12.5 ng/ml, 6-8 h): +++ (key: +++ 70-100% rounded cells; ++ 50-75%; + 25-50%; −−− <25%) | percentage of rounded cells ([4]; 25 ng/ml, 6-8 h): +++ (key: +++ 70-100% rounded cells; ++ 50-75%; + 25-50%; −−− <25%) | percentage of rounded cells ([4]; 50 ng/ml, 6-8 h): +++ (key: +++ 70-100% rounded cells; ++ 50-75%; + 25-50%; −−− <25%) | percentage of rounded cells ([4]; 100 ng/ml, 6-8 h at 37° C.): +++ (key: +++ 70-100% rounded cells; ++ 50-75%; + 25-50%; −−− <25%) | Anti-OVA titers GMT [5]: 51,000 | anti-LT IgG titers GMT [5]: 30,000 | fold increase of Anti-OVA titers [5]: 37 fold | Kd [6]: 0.0007 µM | Flu A IgG, Assay values (Elisa Units) Individual Mice [7]: 150 Elisa Units and 102 Elisa Units and 47 Elisa Units and 45 Elisa Units and 642 Elisa Units and 15498 Elisa Units and 3137 Elisa Units and 6852 Elisa Units and 18563 Elisa Units and 28151 Elisa Units | anti-LT antibody titers GMT [8]: 196,000 | anti-TT IgG titers GMT [9]: 150,000 | anti-TT titers [9]: significantly increased | inflammatory response after IM injection [10]: swelling of the thigh muscle | inflammatory response after SC injection ([10]; sc): formation of a large nodule | lymph node cell response to re-stimulation with OVA or LT [11]: did respond to in vitro re-stimulation with OVA or LT by producing IFN-γ and IL-4 | spleen cell IFN-γ response to re-stimulation [11]: did respond to re-stimulation by producing IFN-γ | fold increase in G:C compared to the buffer control group [12]: 2.4 fold | times more IFNγ and IL4 producing lymphocytes compared to TT alone [13]: 10 times | TT IgG, Assay values (Elisa Units) Individual Mice [14]: 188314 Elisa Units and 222731 Elisa Units and 178753 Elisa Units and 88333 Elisa Units and 192934 Elisa Units and 201494 Elisa Units and 169482 Elisa Units and 379919 Elisa Units and 73992 Elisa Units and 615173 Elisa Units and 204102 Elisa Units and 146225 Elisa Units and 183724 Elisa Units and 323948 Elisa Units and 202170 Elisa Units and 185486 Elisa Units and 85832 Elisa Units and 163652 Elisa Units and 208284 Elisa Units and 83436 Elisa Units and 63293 Elisa Units and 50116 Elisa Units and 121818 Elisa Units and 176340 Elisa Units and 114780 Elisa Units and 131805 Elisa Units and 6246 Elisa Units and 11745 Elisa Units and 31797 Elisa Units | anti-TT IgG GMT [14]: 282,000 | fold greater anti-TT IgG titers than the non-adjuvanted group [14]: 34 fold | immune response to co-administered TT [14]: significantly enhanced

O=C(O)[C@H](O)[C@@H](O)[C@H](O)[C@H](O)CO[C@H]1O[C@H](CO)[C@H](O)[C@H](O)[C@H]1O [melibionic acid]
IC50 [15]: 5000 to 11000 µM

Nc1ccc(OC2OC(CO)C(O)C(O)C2O)cc1 (stereo not drawn) [p-aminophenyl α-galactoside]
IC50 [15]: 4800 to 12000 µM

O=[N+]([O-])c1cccc(OC2OC(CO)C(O)C(O)C2O)c1 (stereo not drawn) [m-nitrophenyl α-galactoside]
IC50 [15]: 600 to 700 µM

Gal-β1,3-GalNAc-β1,4-(NeuAc-α2,3)-Gal-β1,4-Glc-β1,1-ceramide [GM1]
Diameter skin nodules, Average Mean ± SD [3]: 0 cm | Diameter skin nodules, Individual Mice [3]: 0 cm | skin nodules / inflammatory response after intradermal injection [3]: not inflammatory | Kd ([15]; read-out: affinity): 0.0001 to 0.01 µM

cholera toxin [CT]
TT IgG, Geometric mean [1]: 95419 Elisa Units | fold higher titers than the non-adjuvanted vaccine [1]: 823 fold | fold more active than CT/GM1 [1]: 1.6 to 3 fold | TT IgG, Assay values (Elisa Units) Individual Mice [16]: 71077 Elisa Units and 113082 Elisa Units and 75238 Elisa Units and 123721 Elisa Units and 61438 Elisa Units | TT IgG, Geometric mean [16]: 85603 Elisa Units | fold higher antibody titers to TT than the non-adjuvanted vaccine [16]: 426 fold | skin nodules / inflammatory response after intradermal injection [3]: skin nodules | Kd [6]: 0.0006 µM | inflammatory response after IM injection [10]: muscle swelling | TT IgG, Assay values (Elisa Units) Individual Mice [14]: 11222 Elisa Units and 14300 Elisa Units and 29533 Elisa Units and 63092 Elisa Units and 125687 Elisa Units | TT IgG, Geometric mean [14]: 32734 Elisa Units | fold greater antibody titers to TT than the non-adjuvanted vaccine [14]: 105 fold

— patent US20060002960A1 (priority 2003, published 2006)
